Source: publication PMC7962978, “PSMA-D4 Radioligand for Targeted Therapy of Prostate Cancer: Synthesis, Characteristics and Preliminary Assessment of Biological Properties” (International Journal of Molecular Sciences, 2021)

Tests used:
[1] = test system: LNCaP tumor-bearing mice; experiment: Ex vivo biodistribution in mice bearing LNCaP tumor
Protocol: An experimental tumor murine model was induced using LNCaP cell, which grew to 80–90% confluence before trypsinization and formulation in Matrixgel™ Basement Membrane Matrix (Bedford, MA, USA) for implantation into mice. The mice were subcutaneously injected in the shoulder with 200 mcL bolus containing a suspension of 10^6 freshly harvested cell line LNCaP in Matrixgel™. This procedure was performed under anaesthesia with 2% isoflurane. The animals were kept under pathogen-free condition, and experiments were performed 2–3 weeks later when a tumor reached a volume of approximately 150 ± 60 mm^3. Then, the animals were randomized into two groups (25 mice per group, five mice per time point): Group 1, treated with a single intravenous injection of [^90Y]Y-PSMA-D4 (0.1 mL, 0.1 mcg, 15.5 MBq, SA 16.7 GBq mg^−1 = 17.2 GBq mcmol^−1) and Group 2, treated with a single intravenous injection of [^47Sc]Sc-PSMA-D4 (0.1 mL, 0.19 mcg, 10 MBq, SA 4.8 GBq mg^−1 = 4.57 GBq mcmol^−1).
At 1, 2, 4, 6, 24, and 48 h after injection, the animals were euthanized by cervical dislocation and dissected. Selected organs and tissues were assayed for their radioactivity and weighted. The physiological distribution was calculated and expressed in terms of the percentage of administrated radioactivity found in each of the selected organs or tissues per gram (%ID g^−1).
Results are provided as mean ± SD. The results of physiological distribution are presented as a percentage of the dose administered per gram of tissue (%ID g^−1) as average value with standard deviation (%ID g^−1; mean ± standard deviation (SD)) with n representing the number of animals per group. Data were statistically analyzed using GraphPad Prism version 8.0.0 for Window.

[2] = test system: LNCaP tumor-bearing mice; experiment: Cerenkov luminescence imaging (CLI) of LNCaP tumor-bearing mice; assay type: in vivo; settings: 2-48 h p.i.
Protocol: The PhotonIMAGER Optima system (Biospace Lab, Nesles-la-Vallée, France) was used for the non-invasive detection, localization, and quantification of yttrium-90 signal from live animals based on Cerenkov luminescence imaging. It was feasible due to high-energy β^− particle emission produces continuous spectrum light photons or Cerenkov radiation. Optical imaging of [^90Y]Y-PSMA-D4 in LNCaP cell grafted mice was performed contemporaneously with ex vivo studies. The animals were placed individually in an induction chamber, where anaesthesia was induced with 5% isoflurane (Iso-Vet, Piramal Healthcare UK Limited, West Drayton, UK) in 100% oxygen with a delivery rate of 2 L min^−1 until loss of righting reflex. After induction, the animals were moved to the optical chamber. Anaesthesia was then maintained with 1.5–2% isoflurane in 100% oxygen with a flow of 1.5 L min^−1 administered through a facemask connected to a coaxial circuit. Body temperature was maintained at 37 °C by a heating table inside the chamber. At recovery, all animals received 100% oxygen until recovery of righting reflex. No mice were restrained during anaesthesia.

[3] = test system: LNCaP cells; experiment: Cell uptake (total binding) and internalization in LNCaP cells; assay type: cell-based, human; settings: 37 °C, 2 h
Protocol: To determine cell uptake and internalization of [^177Lu]Lu-PSMA-D4 and [^90Y]Y-PSMA-D4, LNCaP cells (5 × 10^5 cells well^−1) were incubated in un-supplemented RPMI 1640 medium with one concentration of tested radioligands on 12-well plates in 37 °C per 2 h. After the appropriate time, the medium was removed, and cells were washed twice using phosphate buffer saline (PBS, IITD PAN, Wroclaw, Poland). The cells were treated twice with 1 mL of 50 mM glycine in 0.1 M NaCl at a pH of 2.8 and incubated for 5 min at room temperature to collect extracellularly bound compound. The internalization was determined by measuring the radioactivity of 1mL of 1 M NaOH used for cell lysis. Total binding was calculated as a sum of the membrane and internalized fractions measured using Wallac Wizard 1470 γ counter. As a control, [^177Lu]Lu-PSMA-617 and [^68Ga]Ga-PSMA-11 were used.

[4] = Lipophilicity determination (logD), shake-flask method; assay type: physicochemical; settings: n-octanol / PBS pH 7.4, shake-flask
Protocol: The partition coefficient logD of the radioligands was determined by the shake-flask method. The solution of 10 to 50 MBq of radiolabeled PSMA ligands (D-4, 617, 11, I&T) in 1.0 mL of phosphate-buffered saline (PBS, pH 7.4) was added to 1.0 mL of presaturated n-octanol solution (n = 3). Vials were shaken vigorously for 10 min. To achieve quantitative phase separation, the vials were centrifuged at 1600 rpm for 5 min. The radioactivity concentration in a defined volume of both the aqueous and the organic phase in six replicates each was measured in a γ-counter (Wizard 1470, Wallac, Turku, Finland). The partition coefficient was calculated as the logarithm of the ratio between counts per minute (cpm) measured in the n-octanol phase to the PBS phase counts.

[5] = target: T1, PSMA antigen (Homo sapiens, UniProt Q04609); experiment: Saturation radioligand binding assay on LNCaP (PSMA positive) and PC3 (PSMA negative) cell membranes
T1 construct: PSMA antigen expressed on LNCaP cell membranes; endogenous in cells; host or cells: LNCaP cell membranes (PC3 membranes as PSMA-negative control)
Protocol: The equilibrium constant (KD) was determined by a saturation binding experiment performed in PSMA positive LNCaP and PSMA negative PC3 cell membranes isolated according to the procedure developed by Fichna et al.. The 50 mcL of LNCaP and PC3 cell membranes were seeded on special MultiScreen™ 96 well filter plates (Merck, Warsaw, Poland) and incubated for 2 h with increasing concentration of [^177Lu]Lu-PSMA-D4, [^90Y]Y-PSMA-D4, and […] (0.016–194 nM) at 37 °C. After incubation, the unbound radiocomplexes were filtered under vacuum, and the membranes were washed twice using PBS. The filters containing membranes with the attached radiotracer were extruded into tubes using MultiScreen Multile Punch (Merck). The number of associated inhibitors was determined by measuring the radioactivity of squeezed filters using Wallac Wizard 1470 γ counter. The KD and Bmax were calculated by nonlinear regression using the GraphPad Prism statistic program.

T1 sequence (Q04609 whole entry): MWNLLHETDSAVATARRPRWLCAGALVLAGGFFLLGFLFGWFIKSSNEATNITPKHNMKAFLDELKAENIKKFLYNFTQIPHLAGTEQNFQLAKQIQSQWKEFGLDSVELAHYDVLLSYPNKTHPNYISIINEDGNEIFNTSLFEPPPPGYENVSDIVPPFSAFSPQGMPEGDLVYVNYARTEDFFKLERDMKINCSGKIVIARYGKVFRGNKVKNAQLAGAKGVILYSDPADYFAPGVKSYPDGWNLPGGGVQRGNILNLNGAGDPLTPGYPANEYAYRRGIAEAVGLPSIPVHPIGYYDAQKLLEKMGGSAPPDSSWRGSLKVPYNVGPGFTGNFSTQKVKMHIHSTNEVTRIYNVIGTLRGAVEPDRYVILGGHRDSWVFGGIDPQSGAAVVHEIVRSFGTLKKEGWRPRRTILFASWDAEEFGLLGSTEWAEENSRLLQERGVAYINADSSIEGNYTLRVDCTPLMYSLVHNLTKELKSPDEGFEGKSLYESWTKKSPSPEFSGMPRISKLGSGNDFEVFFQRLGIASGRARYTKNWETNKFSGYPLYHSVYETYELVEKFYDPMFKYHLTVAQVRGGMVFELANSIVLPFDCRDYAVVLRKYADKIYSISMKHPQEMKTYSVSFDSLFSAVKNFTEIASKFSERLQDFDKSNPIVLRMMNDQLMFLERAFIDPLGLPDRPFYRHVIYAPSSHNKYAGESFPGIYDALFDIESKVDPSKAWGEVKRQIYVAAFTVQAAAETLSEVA

O=C([O-])CN1CCN(CC(=O)[O-])CCN(CC(=O)NCC2CCC(C(=O)NC(Cc3c[nH]c4ccccc34)C(=O)NCCCCC(NC(=O)NC(CCC(=O)O)C(=O)O)C(=O)O)CC2)CCN(CC(=O)[O-])CC1.[90Y+3] (centres unmarked) [[^90Y]Y-PSMA-D4]
T/B (ratio tumor to blood) ([1]; 2 h after i.v. injection): 323.7
T/K (ratio tumor to kidneys) ([1]; 2 h after i.v. injection): 7.6
T/M (ratio tumor to muscle) ([1]; 2 h after i.v. injection): 97.0
blood ([1]; 2 h after i.v. injection): 0.06 ± 0.01 %ID g^−1
kidneys ([1]; 2 h after i.v. injection): 2.70 ± 0.20 %ID g^−1
large intestine ([1]; 2 h after i.v. injection): 0.12 ± 0.05 %ID g^−1
liver ([1]; 2 h after i.v. injection): 0.08 ± 0.00 %ID g^−1
muscle ([1]; 2 h after i.v. injection): 0.21 ± 0.13 %ID g^−1
small intestine ([1]; 2 h after i.v. injection): 0.32 ± 0.13 %ID g^−1
spleen ([1]; 2 h after i.v. injection): 0.19 ± 0.06 %ID g^−1
stomach ([1]; 2 h after i.v. injection): 0.10 ± 0.04 %ID g^−1
tumor ([1]; 2 h after i.v. injection): 20.24 ± 5.52 %ID g^−1
urine ([1]; 2 h after i.v. injection): 96.08 ± 0.53 %ID
T/B (ratio tumor to blood) ([1]; 4 h after i.v. injection): 312.9
T/K (ratio tumor to kidneys) ([1]; 4 h after i.v. injection): 9.7
T/M (ratio tumor to muscle) ([1]; 4 h after i.v. injection): 324.4
blood ([1]; 4 h after i.v. injection): 0.05 ± 0.03 %ID g^−1
kidneys ([1]; 4 h after i.v. injection): 1.70 ± 0.13 %ID g^−1
large intestine ([1]; 4 h after i.v. injection): 0.32 ± 0.16 %ID g^−1
liver ([1]; 4 h after i.v. injection): 0.08 ± 0.01 %ID g^−1
muscle ([1]; 4 h after i.v. injection): 0.05 ± 0.02 %ID g^−1
small intestine ([1]; 4 h after i.v. injection): 0.30 ± 0.14 %ID g^−1
spleen ([1]; 4 h after i.v. injection): 0.17 ± 0.06 %ID g^−1
stomach ([1]; 4 h after i.v. injection): 0.11 ± 0.05 %ID g^−1
tumor ([1]; 4 h after i.v. injection): 16.40 ± 6.88 %ID g^−1
urine ([1]; 4 h after i.v. injection): 95.47 ± 3.07 %ID
T/B (ratio tumor to blood) ([1]; 6 h after i.v. injection): 131.2
T/K (ratio tumor to kidneys) ([1]; 6 h after i.v. injection): 8.4
T/M (ratio tumor to muscle) ([1]; 6 h after i.v. injection): 983.7
blood ([1]; 6 h after i.v. injection): 0.06 ± 0.01 %ID g^−1
kidneys ([1]; 6 h after i.v. injection): 0.98 ± 0.38 %ID g^−1
large intestine ([1]; 6 h after i.v. injection): 0.20 ± 0.02 %ID g^−1
liver ([1]; 6 h after i.v. injection): 0.31 ± 0.07 %ID g^−1
muscle ([1]; 6 h after i.v. injection): 0.01 ± 0.01 %ID g^−1
small intestine ([1]; 6 h after i.v. injection): 0.14 ± 0.11 %ID g^−1
spleen ([1]; 6 h after i.v. injection): 1.05 ± 0.29 %ID g^−1
stomach ([1]; 6 h after i.v. injection): 0.04 ± 0.03 %ID g^−1
tumor ([1]; 6 h after i.v. injection): 8.28 ± 1.97 %ID g^−1
urine ([1]; 6 h after i.v. injection): 96.57 ± 2.44 %ID
T/B (ratio tumor to blood) ([1]; 24 h after i.v. injection): 257.6
T/K (ratio tumor to kidneys) ([1]; 24 h after i.v. injection): 29.0
T/M (ratio tumor to muscle) ([1]; 24 h after i.v. injection): 387.4
blood ([1]; 24 h after i.v. injection): 0.03 ± 0.03 %ID g^−1
kidneys ([1]; 24 h after i.v. injection): 0.30 ± 0.12 %ID g^−1
large intestine ([1]; 24 h after i.v. injection): 0.41 ± 0.15 %ID g^−1
liver ([1]; 24 h after i.v. injection): 0.04 ± 0.01 %ID g^−1
muscle ([1]; 24 h after i.v. injection): 0.02 ± 0.02 %ID g^−1
small intestine ([1]; 24 h after i.v. injection): 0.20 ± 0.20 %ID g^−1
spleen ([1]; 24 h after i.v. injection): 0.12 ± 0.06 %ID g^−1
stomach ([1]; 24 h after i.v. injection): 0.06 ± 0.05 %ID g^−1
tumor ([1]; 24 h after i.v. injection): 8.33 ± 3.09 %ID g^−1
urine ([1]; 24 h after i.v. injection): 94.79 ± 7.51 %ID
T/B (ratio tumor to blood) ([1]; 48 h after i.v. injection): 193.0
T/K (ratio tumor to kidneys) ([1]; 48 h after i.v. injection): 68.4
T/M (ratio tumor to muscle) ([1]; 48 h after i.v. injection): 351.4
blood ([1]; 48 h after i.v. injection): 0.04 ± 0.02 %ID g^−1
kidneys ([1]; 48 h after i.v. injection): 0.12 ± 0.03 %ID g^−1
large intestine ([1]; 48 h after i.v. injection): 0.84 ± 0.56 %ID g^−1
liver ([1]; 48 h after i.v. injection): 0.17 ± 0.07 %ID g^−1
muscle ([1]; 48 h after i.v. injection): 0.02 ± 0.01 %ID g^−1
small intestine ([1]; 48 h after i.v. injection): 0.14 ± 0.07 %ID g^−1
spleen ([1]; 48 h after i.v. injection): 0.97 ± 0.62 %ID g^−1
stomach ([1]; 48 h after i.v. injection): 0.03 ± 0.03 %ID g^−1
tumor ([1]; 48 h after i.v. injection): 8.03 ± 7.31 %ID g^−1
urine ([1]; 48 h after i.v. injection): 97.75 ± 0.34 %ID
in vivo CLI tumor visualization [2]: excellent tumor visualization
Internalization [3]: 35.4%
Total Binding [3]: 16.8%
logD [4]: −5.18 ± 0.04
Kd ([5]; LNCaP cell membranes, 2 h, 37 °C): 4.5 ± 2.1 nM
Specific Binding ([5]; total binding on LNCaP minus non-specific binding on PC3 membranes): 99.9 ± 0.1%
